# Experiments:
# Dipeptidyl peptidase 4 [1] = target: T1, Dipeptidyl peptidase 4 (Homo sapiens, UniProt P27487); test: Inhibition of DPP-4 (unknown origin) using (H-Gly-Pro-AMC) as substrate
# Target sequence in this assay (P27487 whole entry): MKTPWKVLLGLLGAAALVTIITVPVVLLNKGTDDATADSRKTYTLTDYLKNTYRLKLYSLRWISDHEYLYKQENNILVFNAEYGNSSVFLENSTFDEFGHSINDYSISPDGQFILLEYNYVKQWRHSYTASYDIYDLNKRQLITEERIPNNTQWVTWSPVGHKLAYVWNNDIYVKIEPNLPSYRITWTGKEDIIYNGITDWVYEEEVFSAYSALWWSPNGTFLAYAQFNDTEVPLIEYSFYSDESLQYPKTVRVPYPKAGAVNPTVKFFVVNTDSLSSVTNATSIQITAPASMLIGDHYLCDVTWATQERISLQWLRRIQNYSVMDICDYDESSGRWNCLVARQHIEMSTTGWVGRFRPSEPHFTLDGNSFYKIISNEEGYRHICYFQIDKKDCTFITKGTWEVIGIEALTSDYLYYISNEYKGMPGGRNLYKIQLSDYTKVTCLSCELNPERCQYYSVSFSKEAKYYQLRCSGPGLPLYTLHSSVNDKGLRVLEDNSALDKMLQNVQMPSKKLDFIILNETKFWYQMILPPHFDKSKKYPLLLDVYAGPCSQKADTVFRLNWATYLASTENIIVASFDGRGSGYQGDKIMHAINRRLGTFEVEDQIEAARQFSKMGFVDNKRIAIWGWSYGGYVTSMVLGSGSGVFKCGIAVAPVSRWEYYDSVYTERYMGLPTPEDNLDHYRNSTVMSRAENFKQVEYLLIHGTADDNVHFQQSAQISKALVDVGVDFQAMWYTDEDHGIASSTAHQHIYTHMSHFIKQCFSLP
# [2] = Biovailability in mouse at 3 to 10 mg/kg, iv; format: ADME, organism-based; settings: in vivo, dose 3-10 mg/kg
# Dipeptidyl peptidase 9 = Dipeptidyl peptidase 9 (Homo sapiens, UniProt Q86TI2); test: Inhibition of human recombinant DPP-9
# Mus musculus [3] = test: Hypoglycemic activity in mouse assessed as reduction in blood glucose level at 10 mg/kg measured after 120 mins; format: ADME, organism-based; set-up: scale not given: the % may be the effect or the level left; settings: in vivo, 2 h
# [4] = Clearance in mouse at 3 to 10 mg/kg, iv; format: ADME, organism-based; settings: in vivo, dose 3-10 mg/kg
# [5] = Half life in mouse at 3 to 10 mg/kg, iv; format: ADME, organism-based; settings: in vivo, dose 3-10 mg/kg
# Dipeptidyl peptidase 8 = Dipeptidyl peptidase 8 (Homo sapiens, UniProt Q6V1X1); test: Inhibition of human recombinant DPP-8
# [6] = Cytotoxicity against human L02 cells assessed as cell viability after 72 hrs by MTT assay; format: toxicity, cell-based; settings: read-out: Activity
# [7] = Metabolic stability in rat liver microsome assessed as parent compound remaining; format: ADME; settings: microsomes
# [8] = Metabolic stability in rat plasma assessed as parent compound remaining; format: ADME, cell-free
# Mus musculus [9] = test: Antidiabetic activity in C57BL/6J mouse assessed as decrease in AUC of glucose at 3 mg/kg, po; format: functional; set-up: scale not given: the % may be the effect or the level left
# Mus musculus [10] = test: Hypoglycemic activity in C57BL/6J mouse assessed as reduction in blood glucose level at 3 mg/kg, iv measured for 180 mins; format: ADME, organism-based; set-up: scale not given: the % may be the effect or the level left; settings: in vivo, 3 h
# Rattus norvegicus [11] = test: Antihyperglycemic activity in STZ-induced diabetic rat model assessed as reduction in blood glucose level at 100 mg/kg, po measured upto 24 hrs; format: functional; set-up: scale not given: the % may be the effect or the level left
# Homo sapiens [12] = organism: Homo sapiens; test: Selectivity index, ratio of IC50 for human recombinant DPP-4 to IC50 for human recombinant DPP-8
# Mus musculus [13] = test: Hypoglycemic activity in ICR mouse assessed as reduction in blood glucose level at 30 mg/kg measured at 120 mins; format: ADME, organism-based; set-up: scale not given: the % may be the effect or the level left; settings: in vivo, 2 h
# Homo sapiens [14] = organism: Homo sapiens; test: Selectivity index, ratio of IC50 for human recombinant DPP-4 to IC50 for human recombinant DPP-9
# Mus musculus [15] = test: Hypoglycemic activity in ICR mouse assessed as reduction in blood glucose level at 3 mg/kg measured at 120 mins; format: ADME, organism-based; set-up: scale not given: the % may be the effect or the level left; settings: in vivo, 2 h
# Dipeptidyl peptidase 4 [16] = target: T1, Dipeptidyl peptidase 4; test: Inhibition of human recombinant DPP-4 using H-Gly-Pro-aminomethylcoumarin as substrate
# Target sequence in this assay (P27487 whole entry): as above
# Dipeptidyl peptidase 4 [17] = target: T1, Dipeptidyl peptidase 4; test: Inhibition of human recombinant DPP-4 using H-Gly-Pro-aminomethylcoumarin as substrate at 100 uM relative to control
# Target sequence in this assay (P27487 whole entry, looked up): as the sequence (P27487 whole entry) above
# [18] = Half life in Sprague-Dawley rat at 3 mg/kg, po; format: ADME, organism-based; settings: in vivo
# Mus musculus [19] = test: Hypoglycemic activity in KKAy mouse assessed as reduction in blood glucose level at 3 mg/kg; format: ADME, organism-based; set-up: scale not given: the % may be the effect or the level left; settings: in vivo
# Mus musculus [20] = test: Hypoglycemic activity in KKAy mouse assessed as reduction in blood glucose level at 30 mg/kg; format: ADME, organism-based; set-up: scale not given: the % may be the effect or the level left; settings: in vivo
# Dipeptidyl peptidase 4 [21] = target: T1, Dipeptidyl peptidase 4; test: Inhibition of human recombinant DPP-4 at 25 uM using Gly-Pro-Aminomethylcoumarin as substrate by Spectra max fluorometer analysis relative to control
# Target sequence in this assay (P27487 whole entry, looked up): as the sequence (P27487 whole entry) above
# Mus musculus [22] = test: Hypoglycemic activity in ICR mouse assessed as reduction in blood glucose level at 10 mg/kg; format: ADME, organism-based; set-up: scale not given: the % may be the effect or the level left; settings: in vivo
# Mus musculus [23] = test: Hypoglycemic activity in ICR mouse assessed as reduction in blood glucose level at 1 mg/kg; format: ADME, organism-based; set-up: scale not given: the % may be the effect or the level left; settings: in vivo
# [24] = Half life in KKAy mouse at 10 to 30 mg/kg; format: ADME, organism-based; settings: in vivo, dose 10-30 mg/kg
# Mus musculus [25] = test: Hypoglycemic activity in ICR mouse assessed as reduction in blood glucose level at 30 mg/kg; format: ADME, organism-based; set-up: scale not given: the % may be the effect or the level left; settings: in vivo
# Mus musculus [26] = test: Hypoglycemic activity in KKAy mouse assessed as reduction in blood glucose level at 10 mg/kg; format: ADME, organism-based; set-up: scale not given: the % may be the effect or the level left; settings: in vivo
# Mus musculus [27] = test: Hypoglycemic activity in ICR mouse assessed as reduction in blood glucose level at 3 mg/kg; format: ADME, organism-based; set-up: scale not given: the % may be the effect or the level left; settings: in vivo
# [28] = Oral bioavailability in KKAy mouse at 10 to 30 mg/kg; format: ADME, organism-based; settings: in vivo, dose 10-30 mg/kg
# Rattus norvegicus [29] = test: Anti-hyperglycemic activity in STZ-induced diabetic rat model assessed as improvement in glucose tolerance level at 30 mg/kg, po measured on day 15; format: functional
# Rattus norvegicus [30] = test: Anti-hyperglycemic activity in STZ-induced diabetic rat model assessed as improvement in glucose tolerance level at 30 mg/kg, po measured on day 10; format: functional; settings: time 10 day
# [31] = Metabolic stability in human liver microsomes assessed as intrinsic clearance; format: ADME, Microsome; settings: read-out: CLH
# [32] = Half life in ICR mouse at 1 to 10 mg/kg, po; format: ADME, organism-based; settings: in vivo, dose 1-10 mg/kg
# [33] = Cmax in ICR mouse at 1 to 10 mg/kg, po; format: ADME, organism-based; set-up: route po; settings: in vivo, dose 1-10 mg/kg
# [34] = MRT in ICR mouse at 1 to 10 mg/kg, po; format: ADME, organism-based; settings: in vivo, dose 1-10 mg/kg
# [35] = Tmax in ICR mouse at 1 to 10 mg/kg, po; format: ADME, organism-based; settings: in vivo, dose 1-10 mg/kg
# [36] = Bioavailability in dog; format: ADME, organism-based, Canis lupus familiaris; settings: in vivo
# [37] = Bioavailability in monkey; format: ADME, organism-based, Macaca mulatta; settings: rhesus monkey, in vivo
# Dipeptidyl peptidase 4 [38] = target: T1, Dipeptidyl peptidase 4
# Target sequence in this assay (P27487 whole entry): as above
# [39] = Bioavailability in rat; format: ADME, organism-based; settings: in vivo
# Mus musculus [40] = test: Hypoglycemic activity in C57BL/6J mouse assessed as reduction in blood glucose level at 10 mg/kg, iv measured for 180 mins; format: ADME, organism-based; set-up: scale not given: the % may be the effect or the level left; settings: in vivo, 3 h
# Homo sapiens [41] = organism: Homo sapiens; test: Selectivity index, ratio of IC50 for DPP-8 (unknown origin) to IC50 for DPP-4 (unknown origin)
# Homo sapiens [42] = organism: Homo sapiens; test: Selectivity index, ratio of IC50 for DPP-9 (unknown origin) to IC50 for DPP-4 (unknown origin)
# Mus musculus [43] = test: Hypoglycemic activity in C57BL/6J mouse assessed as reduction in blood glucose level at 5 mg/kg, iv measured for 180 mins; format: ADME, organism-based; set-up: scale not given: the % may be the effect or the level left; settings: in vivo, 3 h
# Mus musculus [44] = test: Hypoglycemic activity in C57BL/6J mouse assessed as reduction in blood glucose level at 20 mg/kg, iv measured for 180 mins; format: ADME, organism-based; set-up: scale not given: the % may be the effect or the level left; settings: in vivo, 3 h
# [45] = Aqueous stability in phosphate buffer at pH 7.4 assessed as half life; format: physicochemical
# Sequence of Dipeptidyl peptidase 9 (Q86TI2 whole entry): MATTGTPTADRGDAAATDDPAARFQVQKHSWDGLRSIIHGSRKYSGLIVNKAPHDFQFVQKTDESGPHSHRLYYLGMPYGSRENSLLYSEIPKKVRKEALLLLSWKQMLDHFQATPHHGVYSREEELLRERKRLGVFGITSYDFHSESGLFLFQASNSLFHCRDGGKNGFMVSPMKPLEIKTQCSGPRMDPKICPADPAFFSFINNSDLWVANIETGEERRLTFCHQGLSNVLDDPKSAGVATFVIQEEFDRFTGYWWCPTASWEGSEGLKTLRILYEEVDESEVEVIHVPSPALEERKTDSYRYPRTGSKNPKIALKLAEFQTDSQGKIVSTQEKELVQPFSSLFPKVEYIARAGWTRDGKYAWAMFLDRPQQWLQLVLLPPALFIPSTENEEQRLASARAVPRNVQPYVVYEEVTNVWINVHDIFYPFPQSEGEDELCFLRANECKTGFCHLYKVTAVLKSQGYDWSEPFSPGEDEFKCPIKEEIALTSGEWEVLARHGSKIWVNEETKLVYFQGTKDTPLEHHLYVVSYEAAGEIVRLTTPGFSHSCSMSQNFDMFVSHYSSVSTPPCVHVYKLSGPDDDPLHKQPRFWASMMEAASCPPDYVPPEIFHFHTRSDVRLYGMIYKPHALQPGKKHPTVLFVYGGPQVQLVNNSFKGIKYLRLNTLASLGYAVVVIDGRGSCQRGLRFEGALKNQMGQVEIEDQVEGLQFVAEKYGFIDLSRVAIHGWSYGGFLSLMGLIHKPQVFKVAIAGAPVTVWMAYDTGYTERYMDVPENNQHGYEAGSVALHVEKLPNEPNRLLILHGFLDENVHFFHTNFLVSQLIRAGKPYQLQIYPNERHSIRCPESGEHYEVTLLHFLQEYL
# Sequence of Dipeptidyl peptidase 8 (Q6V1X1 whole entry): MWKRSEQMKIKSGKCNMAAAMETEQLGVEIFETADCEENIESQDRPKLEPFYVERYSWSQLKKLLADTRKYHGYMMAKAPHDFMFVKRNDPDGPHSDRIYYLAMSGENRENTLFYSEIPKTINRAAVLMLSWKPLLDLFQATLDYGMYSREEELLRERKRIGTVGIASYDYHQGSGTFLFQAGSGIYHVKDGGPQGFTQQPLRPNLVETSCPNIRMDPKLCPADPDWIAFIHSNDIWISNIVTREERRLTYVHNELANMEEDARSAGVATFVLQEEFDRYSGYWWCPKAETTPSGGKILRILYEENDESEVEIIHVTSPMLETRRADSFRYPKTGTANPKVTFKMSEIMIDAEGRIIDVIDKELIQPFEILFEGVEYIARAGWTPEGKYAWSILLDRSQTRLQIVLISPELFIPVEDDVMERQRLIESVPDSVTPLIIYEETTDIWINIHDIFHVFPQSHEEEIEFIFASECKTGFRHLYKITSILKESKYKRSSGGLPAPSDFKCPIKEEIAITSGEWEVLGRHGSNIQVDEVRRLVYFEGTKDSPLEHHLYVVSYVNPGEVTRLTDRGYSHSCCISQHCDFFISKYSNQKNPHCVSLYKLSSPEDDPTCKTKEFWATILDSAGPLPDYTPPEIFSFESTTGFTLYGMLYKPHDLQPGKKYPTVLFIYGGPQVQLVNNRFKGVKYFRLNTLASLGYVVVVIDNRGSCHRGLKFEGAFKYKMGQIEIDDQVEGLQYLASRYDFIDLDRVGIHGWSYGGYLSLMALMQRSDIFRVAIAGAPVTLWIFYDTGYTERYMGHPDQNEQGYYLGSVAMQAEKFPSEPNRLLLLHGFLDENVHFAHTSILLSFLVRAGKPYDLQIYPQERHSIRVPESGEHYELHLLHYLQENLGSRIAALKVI
structure (smiles),measurement,setting,value
Cc1ccc2cc(CNc3nc(C)cs3)n(/N=C/c3ccc(O)cc3)c(=O)c2c1,IC50,Dipeptidyl peptidase 4 [1],0.00112 µM
CC#CCn1c(N2CCC[C@@H](N)C2)cc(=O)n(Cc2ccc(Cl)c(C(=O)N(C)C)c2)c1=O,bioavailability,[2],27.3%
same,IC50,Dipeptidyl peptidase 9,> 100 µM
same,Activity,Mus musculus [3],16.4%
same,clearance,[4],5.83 mL/min/kg
same,half-life,[5],11.1 h
same,IC50,Dipeptidyl peptidase 8,> 100 µM
same,viability at 72 h,[6],100%
same,Stability,[7],101.83%
same,Stability,[8],99.38%
N[C@@H](CC(=O)N1CCn2c(nnc2C(F)(F)F)C1)Cc1cc(F)c(F)cc1F [SITAGLIPTIN],Activity,Mus musculus [9],17.9%
same,Activity,Mus musculus [10],27.8%
same,Activity,Rattus norvegicus [11],31.9%
NCc1c(-c2ccc(Cl)cc2Cl)nc2ccccn12,Ratio IC50,Homo sapiens [12],215
same,Activity,Mus musculus [13],33.53%
same,Ratio IC50,Homo sapiens [14],192
same,Activity,Mus musculus [15],35%
same,IC50,Dipeptidyl peptidase 4 [16],0.13 µM
same,inhibition,Dipeptidyl peptidase 4 [17],75%
N#C[C@@H]1C[C@H]2[C@H](CC2(F)F)N1C(=O)[C@@H](N)C12CC3CC(CC(O)(C3)C1)C2,half-life,[18],0.92 h
N#C[C@@H]1CCCN1C(=O)CNC1C[C@H]2CC(O)C[C@H]2C1 (stereo not given in full),Activity,Mus musculus [19],61.9%
same,Activity,Mus musculus [20],52.2%
Cc1cc(=O)oc2cc(NC(=O)CN3CCNCC3)ccc12,inhibition,Dipeptidyl peptidase 4 [21],52.9%
N#C[C@@H]1C[C@H](F)CN1C(=O)[C@@H](N)Cc1ccccc1,Activity,Mus musculus [22],29.13%
same,Activity,Mus musculus [23],18.75%
same,Activity,Mus musculus [20],26.4%
same,half-life,[24],5.4 h
same,Activity,Mus musculus [25],27.57%
same,Activity,Mus musculus [26],19.2%
same,Activity,Mus musculus [27],27.36%
same,bioavailability,[28],21.8%
O=C(CN1CCN(c2ccnc3cc(Cl)ccc23)CC1)N1CCCC1,Activity,Rattus norvegicus [29],26.4%
same,Activity,Rattus norvegicus [30],14.6%
same,Activity,Rattus norvegicus [11],25.5%
N[C@@H](CCNC(=O)N1CCn2c(nnc2C(F)(F)F)C1)Cc1cc(F)c(F)cc1F,CLint scaled,[31],< 100 mL/min/kg
same,half-life,[32],1.03 h
same,Cmax,[33],719 ng/mL
same,MRT,[34],2.72 h
same,Tmax,[35],2 h
CC1c2nnc(C(F)(F)F)n2CCN1C(=O)C[C@H](N)Cc1cc(F)c(F)cc1F.Cl (stereo not given in full),bioavailability,[36],91%
same,bioavailability,[37],87%
same,IC50,Dipeptidyl peptidase 4 [38],0.0043 µM
same,bioavailability,[39],57%
Brc1nc2n(n1)CC(c1cc3ccccc3o1)=NN2,Activity,Mus musculus [40],33.6%
same,Ratio IC50,Homo sapiens [41],8
same,IC50,Dipeptidyl peptidase 4 [38],28.5 µM
same,Ratio IC50,Homo sapiens [42],8
same,Activity,Mus musculus [43],19.6%
same,Activity,Mus musculus [44],47.1%
CO[C@@H]1CCCN1C(=O)CC(C)(C)[C@H](N)C(=O)N1CCC[C@H]1C#N.O=C(O)C(F)(F)F,half-life,[45],168 h
